Each structure is given as a SMILES string. Active and inactive are the calls of the source. The rule behind the calls is not given here.

In the assay the target is Induced myeloid leukemia cell differentiation protein Mcl-1 (Homo sapiens) (UniProt Q07820). Put plainly: blockers of Bid binding to Mcl-1 – biochemical, TR-FRET, dose response (AID 1418). The conditions noted are these: Mcl-1/Bid peptide binding, TR-FRET (europium/Dy647), 2 hr. For orientation: In TR-FRET formats the signal depends on donor and acceptor labels being close together.
Sequence of Induced myeloid leukemia cell differentiation protein Mcl-1 (Homo sapiens) (Q07820 whole entry, looked up): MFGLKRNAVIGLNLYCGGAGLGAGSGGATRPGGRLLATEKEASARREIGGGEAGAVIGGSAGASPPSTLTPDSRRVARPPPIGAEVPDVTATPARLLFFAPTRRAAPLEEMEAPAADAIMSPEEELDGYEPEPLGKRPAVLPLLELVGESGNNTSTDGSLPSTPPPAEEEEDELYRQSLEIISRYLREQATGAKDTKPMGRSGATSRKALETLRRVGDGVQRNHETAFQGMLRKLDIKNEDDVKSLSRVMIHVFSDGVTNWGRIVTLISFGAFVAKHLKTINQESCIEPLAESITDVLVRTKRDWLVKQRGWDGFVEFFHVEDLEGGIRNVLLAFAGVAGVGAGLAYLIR
As to `CCOc1ccc(C(Nc2cccnc2)c2cc(Cl)c3cccnc3c2O)cc1` (centres undefined), the IC50 (usually the concentration needed to halve the response being measured) was 0.51 µM.

Turning to `CN(C)c1ccc(-c2nnc(-c3ccc(S(=O)(=O)C(F)F)cc3)o2)cc1`, the concentration for half-maximal inhibition (IC50) is 2.48 µM.

Regarding `CC(=O)Oc1ccc(Cl)cc1/C=C/c1ccc2ccccc2n1`, the IC50 is > 54 µM (inactive).

On to `CCOC(=O)c1ccc(NC(=O)Oc2ccccc2)cc1`, for which the IC50 was > 54 µM (inactive).

Regarding `c1ccc2[nH]c(CN3CCOCC3)nc2c1`, the IC50 is > 54 µM (inactive).

Take `COc1ccc(CN2C(=O)c3cccnc3C2O)cc1` (centres undefined): the IC50 is 0.71 µM.

Regarding `O=C(O)[C@H](Cc1ccccc1)N1Cc2ccccc2C1=O`, the IC50 was 22.3 µM.

Consider `CSc1ccccc1NC(=O)CNCCCN1CCOCC1`, for which the IC50 is > 54 µM (inactive).

For the compound `CCOc1ccc(N2C(=O)c3cccnc3C2Nc2ccc(F)cc2)cc1` (centres undefined), the IC50 is > 54 µM (inactive).

With `O=C(C[n+]1cc(-c2ccccc2)n2c1CCC2)N1c2ccccc2Sc2ccccc21`, the IC50 is > 54 µM (inactive).

In the case of `COc1ccc(Nc2nc(C)c3ccccc3n2)cc1`, the IC50 is > 54 µM (inactive).

Take `O=C1N=c2ccccc2=C1c1c(O)n(-c2cccc(F)c2)[nH]c1=O`: the 50% inhibitory concentration (IC50) was 1.56 µM.

Turning to `COc1ccc(NC(=O)Nc2nnc(CC(=O)NCc3ccccc3)s2)cc1`, the IC50 was > 54 µM (inactive).

As to `CSC(=NCc1cccnc1)NS(=O)(=O)c1cccs1`, the IC50 is > 54 µM (inactive).

Consider `NS(=O)(=O)c1ccc(N/N=C/c2ccc(O)c(O)c2O)c([N+](=O)[O-])c1`, for which the half-inhibitory concentration (IC50) was 3.17 µM.

With `COc1ccccc1NC(=O)CSc1nc2ccccc2cc1Cc1ccccc1`, the IC50 was > 54 µM (inactive).

For `COC(=O)c1cccc(OCC(O)Cn2ccnc2)c1` (centres undefined), the IC50 was > 54 µM (inactive).

In the case of `CCC(CC)NC(=O)COC(=O)c1cc(Br)ccc1Cl`, the IC50 is > 54 µM (inactive).

As to `C=CCn1c(SCc2ccc([N+](=O)[O-])cc2)nnc1C(C)NC(=O)c1ccccc1` (centres undefined), the IC50 was > 54 µM (inactive).

On to `Cc1ccc(C(=O)OC2=CC(=O)CC(C)(C)C2)cc1`, for which the IC50 was > 54 µM (inactive).

As to `O=C(NC(Cc1ccccc1)C(=O)O)c1ccc(S(=O)(=O)N2CCCCC2)cc1` (centres undefined), the IC50 is > 54 µM (inactive).

With `CN(C)CCCCOc1ccccc1-c1ccccc1`, the IC50 was > 54 µM (inactive).

Consider `CCc1c(C(=O)Nc2cc(C)ccc2OC)[nH]c(C)c1C(C)=O`, for which the IC50 is > 54 µM (inactive).

In the case of `COc1ccc(NC(=S)NNc2ccc(S(=O)(=O)Nc3ccccc3C(=O)O)cc2[N+](=O)[O-])cc1`, the IC50 was 22.3 µM.

As to `NC(=S)n1[nH]c(-c2ccc([N+](=O)[O-])cc2)c(N=Nc2cccc(Cl)c2)c1=O`, the IC50 was 0.68 µM.

`CCNc1ccc2noc3c2c1C(=O)c1ccccc1-3`: the 50% inhibitory concentration (IC50) was 14.7 µM.

Take `COC(=O)c1ccc(CNC(=O)c2c3c(nc4ccccc24)CCN(Cc2ccccc2)C3)cc1`: the IC50 is > 54 µM (inactive).

Consider `Cc1c([N+](=O)[O-])c(C(=O)Nc2ccc3c(c2)OCCO3)nn1C`, for which the IC50 was > 54 µM (inactive).

Consider `Cc1cc(NC(=O)c2noc3c2CCc2ccccc2-3)no1`, for which the IC50 was > 54 µM (inactive).

`CCOC(=O)C1CCN(C(=O)c2cc(S(=O)(=O)N3CCOCC3)c(Cl)cc2Cl)CC1`: the IC50 is > 54 µM (inactive).

For `CCOc1cc(N2CCOCC2)c(OCC)cc1NC(=O)CN1CCc2ccccc2C1`, the IC50 is > 54 µM (inactive).

As to `CC(=O)c1ccc(Oc2ccc(C(C)=O)cc2)cc1`, the IC50 was > 54 µM (inactive).

Regarding `COc1ccccc1CCc1nnc(CCC(=O)NC(C)Cc2cccnc2)o1` (centres undefined), the IC50 was > 54 µM (inactive).

With `COc1cc2c(cc1OC)CN(CC(=O)Nc1ccc(C#N)cc1)CC2`, the IC50 was > 54 µM (inactive).

In the case of `Cc1occc1C(=O)N/N=C/c1ccc(N(C)C)cc1`, the IC50 is > 54 µM (inactive).

As to `CCc1ccc(NC(=O)c2ccnc(C(C)(C)C)c2)cc1`, the IC50 was > 54 µM (inactive).

`O=C1Nc2ccccc2/C1=N/N=C/c1ccc(-c2ccc([N+](=O)[O-])cc2)o1`: the IC50 was 0.59 µM.

As for `Cc1ccccc1NCC(=O)N/N=C/C(Br)=C/c1ccccc1`, the IC50 is > 54 µM (inactive).

`COc1cc(OC)cc(C(=O)Nc2ccc(-c3nc4ccccc4o3)c(O)c2)c1`: the 50% inhibitory concentration (IC50) was 3.61 µM.

With `Cc1c(N=Nc2c(-c3ccc([N+](=O)[O-])cc3)[nH]n(C(N)=S)c2=O)cccc1[N+](=O)[O-]`, the 50% inhibitory concentration (IC50) was 2.92 µM.

Take `CCOC(=O)CSc1nc(C2CC2)cc(-c2ccc(Cl)cc2)c1C#N`: the IC50 is > 54 µM (inactive).

Take `COC(=O)CSc1nc(C)c(C)c(C)c1C(N)=O`: the IC50 is > 54 µM (inactive).

Turning to `O=C(NCC1CCCO1)c1ccc(CSCc2cccc(F)c2)o1` (centres undefined), the IC50 is > 54 µM (inactive).

On to `CCCCCSc1nnc2c(n1)OC(c1cccn1C)N(C(C)=O)c1ccccc1-2` (centres undefined), for which the IC50 was > 54 µM (inactive).

As for `O=C(NC1CCCCC1)C(c1ccc2ncccc2c1)N(Cc1ccccc1)C(=O)c1ccc2c(c1)OCCO2` (centres undefined), the IC50 is > 54 µM (inactive).

Turning to `Cc1cc(=O)oc2cc(OCC(=O)N/N=C/c3cc([N+](=O)[O-])ccc3O)ccc12`, the IC50 is 5.58 µM.

Turning to `O=C(Nc1ccc(-c2nc3cc(Cl)ccc3c(=O)o2)cc1)c1ccco1`, the IC50 was > 54 µM (inactive).

For `O=C(NC(=S)Nc1ccc2c(c1)OCCO2)c1ccccc1F`, the IC50 is > 54 µM (inactive).

`CCCOP(=O)(OCCC)C(NC(=O)c1ccccc1)=C(Cl)Cl`: the IC50 is 0.53 µM.

On to `COC(=O)C1=CN(CC2CCCO2)C=C(C(=O)OC)C1c1ccsc1` (centres undefined), for which the IC50 was > 54 µM (inactive).

As for `COc1cccc(C(=O)Nc2ccc3c(c2)C(=O)c2ccccc2C3=O)c1`, the IC50 was 2.79 µM.

`Cc1ccc(N2C(=O)CC(Cn3nc(C)cc3C)C2=O)cc1` (centres undefined): the IC50 was > 54 µM (inactive).

Turning to `Cc1ccc(C)c(C(=O)COC(=O)CCCC(=O)Nc2cc(C(F)(F)F)ccc2Cl)c1`, the IC50 is > 54 µM (inactive).

`CSc1nc(N(CCO)CCO)c2sc3nc(-c4ccco4)c4c(c3c2n1)CCC4`: the IC50 is > 54 µM (inactive).

Consider `Cc1ccc(-c2ccc(/C=C3/NC(=O)NC3=O)o2)cc1[N+](=O)[O-]`, for which the IC50 result was “inactive”.

On to `CCOC(=O)c1sc2nc3c(SCCC(=O)O)cc(C(=O)c4cc(OC)ccc4O)cn3c(=O)c2c1C`, for which the half-inhibitory concentration (IC50) was 1.66 µM.

Consider `O=C(N[C@@H](Cc1ccccc1)C(=O)O)c1ccncc1`, for which the IC50 is > 54 µM (inactive).

Turning to `O=C(N/N=C/c1ccncc1)c1cccc(S(=O)(=O)Nc2ccc(Cl)cc2)c1`, the IC50 was 2.24 µM.

As to `O=C(CN1C(=O)c2cccc3cccc1c23)Nc1ccc(S(=O)(=O)N2CCOCC2)cc1`, the IC50 is > 54 µM (inactive).

With `O=C(CN1C(=O)/C(=C2\SC(=S)N(C3CCS(=O)(=O)C3)C2=O)c2ccccc21)Nc1ccccc1` (centres undefined), the IC50 was 0.73 µM.

As to `O=C(COC(=O)CC(NC(=O)c1ccccc1Cl)c1ccccc1)Nc1cccc(F)c1` (centres undefined), the IC50 was > 54 µM (inactive).

On to `COc1cc(/C=C2/SC(=S)N(CC3CCCO3)C2=O)ccc1O` (centres undefined), for which the IC50 is > 54 µM (inactive).

As for `COc1cccc(N2CCN(C(=O)NC3CCCCC3)CC2)c1`, the IC50 was > 54 µM (inactive).

As to `Cc1cccc2c3nc4ccccc4nc3n(CCCN3C(=O)c4ccccc4C3=O)c12`, the IC50 is > 54 µM (inactive).

For `O=C(c1cccc(Cl)c1)N1CCN(Cc2ccccc2F)CC1`, the IC50 was > 54 µM (inactive).

Turning to `C=CC(c1ccccc1)C(C(=O)c1ccccc1)N(C)C` (centres undefined), the IC50 is > 54 µM (inactive).

Turning to `N/C(CS(=O)(=O)c1ccc(F)cc1)=N\O`, the IC50 is > 54 µM (inactive).

Consider `O=C(COC(=O)CCNS(=O)(=O)c1ccc2c(c1)OCCO2)NC1CCCc2ccccc21` (centres undefined), for which the IC50 was > 54 µM (inactive).

For `Cc1cccc(C(=O)N2CCc3cc(-c4nc(NC(=O)Cn5nnc6ccccc6c5=O)sc4C)ccc32)c1`, the IC50 was > 54 µM (inactive).

Turning to `Oc1c(Cl)cc(Cl)c(Cl)c1Cc1c(O)c(Cl)cc(Cl)c1Cl`, the IC50 is 0.86 µM.

`Cc1ccc(N2CCN(C3=NC(=O)/C(=C\c4cccs4)S3)CC2)cc1`: the IC50 was > 54 µM (inactive).

As to `CSc1nc(SCC(=O)O)c2sc3nc(-c4ccccc4)c4c(c3c2n1)CCC4`, the 50% inhibitory concentration (IC50) is 1.53 µM.

Turning to `CCN1C(=O)/C(=C/c2cccs2)SC1=Nc1ccc(OC)cc1`, the IC50 is > 54 µM (inactive).

For `O=C(Oc1cccc(N2C(=O)C3C4c5ccccc5C(c5ccccc54)C3C2=O)c1)c1ccco1` (centres undefined), the IC50 is > 54 µM (inactive).

On to `Cc1ccc2nc(-c3ccc(SCC(=O)Nc4nnc(C)s4)nc3)[nH]c2c1`, for which the IC50 was 8.48 µM.

As to `c1ccc2c(c1)ncn2CCCCOc1ccc2c(c1)CCC2`, the IC50 was > 54 µM (inactive).

Turning to `C=CCOc1c(OC)cc(/C=N/Nc2cccc(C(=O)O)c2)c(Br)c1Br`, the IC50 is 18.3 µM.

For `CCCCCCn1c(O)c(C=NCCN2CCOCC2)c(=O)[nH]c1=O`, the IC50 was > 54 µM (inactive).

With `O=C(N/N=C/c1ccc(-c2ccc(Cl)c(C(=O)O)c2)o1)c1cc2c(ccc3ccccc32)o1`, the IC50 was 8.18 µM.

For `COc1cccc(CNC(=O)C2CCN(S(=O)(=O)N3CCCCC3)CC2)c1`, the IC50 is > 54 µM (inactive).

On to `Cc1nc(N)sc1-c1csc(Nc2ncccn2)n1`, for which the IC50 was 3.3 µM.

With `COc1ccc2nc(NC(=O)c3cccc(-c4cc5ccccc5oc4=O)c3)sc2c1`, the concentration for half-maximal inhibition (IC50) was 0.89 µM.

On to `CCC(=NC(C)c1ccccc1)c1c(O)[nH]c(=O)[nH]c1=O` (centres undefined), for which the half-maximal inhibitory concentration (IC50) was 0.45 µM.

Consider `O=C(CSc1nnc(-c2ccncc2)o1)NCc1ccccc1Cl`, for which the IC50 was > 54 µM (inactive).

As for `O=S(=O)(Nc1cccc(-c2cn3ccsc3n2)c1)c1ccc(F)cc1`, the IC50 was > 54 µM (inactive).

`Cc1nnc(SCc2cc(=O)oc3ccc4ccccc4c23)n1Cc1ccccc1`: the IC50 was > 54 µM (inactive).

On to `O=c1oc2ccccc2n1CCn1c2ccccc2c2nc3ccccc3nc21`, for which the IC50 is 8.21 µM.

Regarding `CCn1c(SCC(=O)NCc2ccco2)nnc1-c1ccc(N)cc1`, the IC50 was > 54 µM (inactive).

Consider `COc1ccccc1NC(=O)c1cn(C)c(=O)c2cc(OC)c(OC)cc12`, for which the IC50 was > 54 µM (inactive).
